According to US20060100431A1, “Biologically active compounds” (Amura Therapeutics Limited, priority 2002, published 2006):

Molecular target: Wild-type cruzipain (Trypanosoma cruzi, UniProt P25779)
Assay: Trypanosoma cruzi cruzipain peptidase activity assay (Ki)
Format: biochemical
Settings: read-out: Ki, inhibitors of cruzain and cruzipains
Description: Unless otherwise stated, all general chemicals and biochemicals were purchased from either the Sigma Chemical Company, Poole, Dorset, U.K or from Fisher Scientific UK, Loughborough, Leicestershire, U.K. Absorbance assays were carried out in flat-bottomed 96-well plates (Spectra; Greiner Bio-One Ltd., Stonehouse, Gloucestershire, U.K.) using a SpectraMax PLUS384 plate reader (Molecular Devices, Crawley, U.K.). Fluorescence high throughput assays were carried out in either 384-well microtitre plates (Corning Costar 3705 plates, Fisher Scientific) or 96-well ‘U’ bottomed Microfluor W1 microtitre plates (Thermo Labsystems, Ashford, Middlesex, U.K.). Fluorescence assays were monitored using a SpectraMax Gemini fluorescence plate reader (Molecular Devices). For substrates employing either a 7-amino-4-methylcoumarin (AMC) or a 7-amino-4-trifluoromethylcoumarin (AFC) fluorophore, assays were monitored at an excitation wavelength of 365 nm and an emission wavelength of 450 nm and the fluorescence plate reader calibrated with AMC. For substrates employing a 3-amino-benzoyl (Abz) fluorophore, assays were monitored at an excitation wavelength of 310 nm and an emission wavelength of 445 nm; the fluorescence plate reader calibrated with 3-amino-benzamide (Fluka). Unless otherwise indicated, all the peptidase substrates were purchased from Bachem UK, St Helens, Merseyside, UK. Substrates utilizing fluorescence resonance energy transfer methodology (i.e. FRET-based substrates) were synthesized at Incenta Limited using published methods (Atherton & Sheppard, Solid Phase Peptide Synthesis, IRL Press, Oxford, U.K, 1989) and employed Abz (2-aminobenzoyl) as the fluorescence donor and 3-nitro-tyrosine [Tyr(NO2)] as the fluorescence quencher (Meldal, M. and Breddam, K., Anal. Biochem, 195, 141-147, 1991). Hydroxyethylpiperazine ethanesulfonate (HEPES), tris-hydroxylmethyl aminomethane (tris) base, bis-tris-propane and all the biological detergents (e.g. CHAPS, zwittergents, etc.) were purchased from CN Biosciences UK, Beeston, Nottinghamshire, U.K. Glycerol was purchased from Amersham Pharmacia Biotech, Little Chalfont, Buckinghamshire, U.K. Stock solutions of substrate or inhibitor were made up to 10 mM in 100% dimethylsulfoxide (DMSO) (Rathburns, Glasgow, U.K.) and diluted as appropriately required. In all cases the DMSO concentration in the assays was maintained at less than 1% (vol./vol.).
Assay protocols were based on literature precedent (Table 4; Barrett, A. J., Rawlings, N. D. and Woessner, J. F., 1998, Handbook of Proteolytic Enzymes, Academic Press, London and references therein) and modified as required to suit local assay protocols. Enzyme was added as required to initiate the reaction and the activity, as judged by the change in fluorescence upon conversion of substrate to product, was monitored over time. All assays were carried out at 25±1° C.
Wild-type cruzipain, derived from Trypanosoma cruzi Dm28 epimastigotes, was obtained from Dr. Julio Scharfstein (Instituto de Biofisica Carlos Chagas Filho, Universidade Federal do Rio de Janeiro, Rio de Janeiro, Brazil). Activity assays were carried out in 100 mM sodium phosphate, pH 6.75 containing 1 mM EDTA and 10 mM L-cysteine using 2.5 nM enzyme. […] The rate of conversion of substrate to product was derived from the slope of the increase in fluorescence monitored continuously over time.
The apparent inhibition constant (Ki) for each compound was determined on the basis that inhibition was reversible and occurred by a pure-competitive mechanism. The Ki values were calculated, from the dependence of enzyme activity as a function of inhibitor concentration, by direct regression analysis (Prism v 3.02) using Equation 2 (Cornish-Bowden, A., 1995.). [formula]

Wild-type cruzipain, sequence (P25779 whole entry): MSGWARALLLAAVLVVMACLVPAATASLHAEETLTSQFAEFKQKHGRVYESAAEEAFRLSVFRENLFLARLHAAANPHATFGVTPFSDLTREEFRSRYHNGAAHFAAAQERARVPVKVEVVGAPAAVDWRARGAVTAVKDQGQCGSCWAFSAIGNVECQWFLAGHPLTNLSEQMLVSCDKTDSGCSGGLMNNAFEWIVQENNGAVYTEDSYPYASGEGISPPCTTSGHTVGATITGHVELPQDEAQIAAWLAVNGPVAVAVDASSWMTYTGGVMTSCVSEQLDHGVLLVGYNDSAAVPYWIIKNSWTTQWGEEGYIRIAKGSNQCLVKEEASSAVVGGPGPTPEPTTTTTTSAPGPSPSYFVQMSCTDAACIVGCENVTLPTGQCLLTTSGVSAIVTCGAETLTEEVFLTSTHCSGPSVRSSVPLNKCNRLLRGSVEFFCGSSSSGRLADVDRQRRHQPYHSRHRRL

Ki, < 5 µM:
CCC[C@H](NC(=O)c1ccc(N(C)C)cc1)C(=O)N1CC[C@@H]2[C@H]1C(=O)CN2C(=O)c1ccccc1 [Example 196, (3aR,6aS)-N-[(1S)-1-(4-Benzoyl-6-oxo-hexahydro-pyrrolo[3,2-b]pyrrole-1-carbonyl)-butyl]-4-dimethylamino-benzamide]
CC(=O)N[C@@H](C)C(=O)N1CC(=O)[C@@H]2[C@H]1CCN2C(=O)[C@H](CC(C)C)NC(=O)c1ccc(N(C)C)cc1 [Example 197, (3aR,6aS)-N-{(1S)-1-[4-((2S)-2-Acetylamino-propionyl)-6-oxo-hexahydro-pyrrolo[3,2-b]pyrrole-1-carbonyl]-3-methyl-butyl}-4-dimethylamino-benzamide]
CC(=O)NCC(=O)N1CC(=O)[C@@H]2[C@H]1CCN2C(=O)[C@H](CC(C)C)NC(=O)c1ccc(N(C)C)cc1 [Example 199, (3aR,6aS)-N-{(1S)-1-[4-(2-Acetylamino-acetyl)-6-oxo-hexahydro-pyrrolo[3,2-b]pyrrole-1-carbonyl]-3-methyl-butyl}-4-dimethylamino-benzamide]
CNCC(=O)N1CC(=O)[C@@H]2[C@H]1CCN2C(=O)[C@H](CC(C)C)NC(=O)c1ccc(N(C)C)cc1 [Example 200, (3aR,6aS)-4-Dimethylamino-N-{(1S)-3-methyl-1-[4-(2-methylamino-acetyl)-6-oxo-hexahydro-pyrrolo[3,2-b]pyrrole-1-carbonyl]-butyl}-benzamide]
CC[C@H](N)C(=O)N1CC(=O)[C@@H]2[C@H]1CCN2C(=O)[C@H](CC(C)C)NC(=O)c1ccc(N(C)C)cc1 [Example 203, (3aR,6aS)-N-{(1S)-1-[4-((2S)-2-Amino-butyryl)-6-oxo-hexahydro-pyrrolo[3,2-b]pyrrole-1-carbonyl]-3-methyl-butyl}-4-dimethylamino-benzamide]
CC(C)C[C@H](NC(=O)c1ccc(N(C)C)cc1)C(=O)N1CC[C@@H]2[C@H]1C(=O)CN2C(=O)[C@@H](N)C(C)C [Example 205, (3aR,6aS)-N-{(1S)-1-[4-((2S)-2-Amino-3-methyl-butyryl)-6-oxo-hexahydro-pyrrolo[3,2-b]pyrrole-1-carbonyl]-3-methyl-butyl}-4-dimethylamino-benzamide]
CC(C)C[C@H](NC(=O)c1ccc(N(C)C)cc1)C(=O)N1CC[C@@H]2[C@H]1C(=O)CN2C(=O)[C@@H](N)CO [Example 206, (3aR,6aS)-N-{(1S)-1-[((2S)-2-Amino-3-hydroxy-propionyl)-6-oxo-hexahydro-pyrrolo[3,2-b]pyrrole-1-carbonyl]-3-methyl-butyl}-4-dimethylamino-benzamide]
CCC[C@H](N)C(=O)N1CC(=O)[C@@H]2[C@H]1CCN2C(=O)[C@H](CC(C)C)NC(=O)c1ccc(N(C)C)cc1 [Example 210, (3aR,6aS)-N-{(1S)-1-[4-((2S)-2-Amino-pentanoyl)-6-oxo-hexahydro-pyrrolo[3,2-b]pyrrole-1-carbonyl]-3-methyl-butyl}-4-dimethylamino-benzamide]
CC(C)C[C@H](NC(=O)c1ccc(N(C)C)cc1)C(=O)N1CC[C@@H]2[C@H]1C(=O)CN2C(=O)[C@@H]1CCCCN1 [Example 217, (3aR,6aS)-4-Dimethylamino-N-{(1S)-3-methyl-1-[6-oxo-4-((2S)-piperidine-2-carbonyl)-hexahydro-pyrrolo[3,2-b]pyrrole-1-carbonyl]-butyl}-benzamide]
CC(C)C[C@H](NC(=O)c1ccc(N(C)C)cc1)C(=O)N1CC[C@@H]2[C@H]1C(=O)CN2C(=O)[C@@H]1C[C@@H](O)CN1 [Example 218, (3aR,6aS)-4-Dimethylamino-N-{(1S)-1-[4-((2S,4R)-4-hydroxy-pyrrolidine-2-carbonyl)-6-oxo-hexahydro-pyrrolo[3,2-b]pyrrole-1-carbonyl]-3-methyl-butyl}-benzamide]
CC(=O)N(C)[C@@H](CC(C)C)C(=O)N1CC(=O)[C@@H]2[C@H]1CCN2C(=O)[C@H](CC(C)C)NC(=O)c1ccc(N(C)C)cc1 [Example 221, (3aR,6aS)-N-((1S)-1-{4-[(2S)-2-(Acetyl-methyl-amino)-4-methyl-pentanoyl]-6-oxo-hexahydro-pyrrolo[3,2-b]pyrrole-1-carbonyl}-3-methyl-butyl)-4-dimethylamino-benzamide]
CC(C)C[C@H](NC(=O)c1ccc(N(C)C)cc1)C(=O)N1CC[C@@H]2[C@H]1C(=O)CN2C(=O)C1(N)CCC1 [Example 223, (3aR,6aS)-N-{(1S)-1-[4-(1-Amino-cyclobutanecarbonyl)-6-oxo-hexahydro-pyrrolo[3,2-b]pyrrole-1-carbonyl]-3-methyl-butyl}-4-dimethylamino-benzamide]
CC(C)C[C@H](NC(=O)c1ccc(N(C)C)cc1)C(=O)N1CC[C@@H]2[C@H]1C(=O)CN2C(=O)C1(N)CCCC1 [Example 224]
CC(C)C[C@H](NC(=O)c1ccc(N(C)C)cc1)C(=O)N1CC[C@@H]2[C@H]1C(=O)CN2C(=O)[C@@H](N)C1CCCCC1 [Example 226, (3aR,6aS)-N-{(1S)-1-[4-((2S)-2-Amino-2-cyclohexyl-acetyl)-6-oxo-hexahydro-pyrrolo[3,2-b]pyrrole-1-carbonyl]-3-methyl-butyl}-4-dimethylamino-benzamide]
CC(C)C[C@H](NC(=O)c1ccc(N(C)C)cc1)C(=O)N1CC[C@@H]2[C@H]1C(=O)CN2C(=O)CN(C)C [Example 227, (3aR,6aS)-4-Dimethylamino-N-{(1S)-1-[4-(2-dimethylamino-acetyl)-6-oxo-hexahydro-pyrrolo[3,2-b]pyrrole-1-carbonyl]-3-methyl-butyl}-benzamide]
CC(C)C[C@H](NC(=O)c1ccc(N(C)C)cc1)C(=O)N1CC[C@@H]2[C@H]1C(=O)CN2C(=O)C1CCCO1 (stereo partly drawn) [Example 238, (3aR,6aS)-4-Dimethylamino-N-{(1S)-3-methyl-1-[6-oxo-4-(tetrahydro-furan-2-carbonyl)-hexahydro-pyrrolo[3,2-b]pyrrole-1-carbonyl]-butyl}-benzamide]
CC(C)C[C@H](NC(=O)c1ccc(N(C)C)cc1)C(=O)N1CC[C@@H]2[C@H]1C(=O)CN2C(=O)CC1CCNCC1 [Example 240]
CC(C)C[C@H](NC(=O)c1ccc(N(C)C)cc1)C(=O)N1CC[C@@H]2[C@H]1C(=O)CN2C(=O)CN1CCNCC1 [Example 241, (3aR,6aS)-4-Dimethylamino-N-{(1S)-3-methyl-1-[6-oxo-4-(2-piperazin-1-yl-acetyl)-hexahydro-pyrrolo[3,2-b]pyrrole-1-carbonyl]-butyl}-benzamide]
CC(C)C[C@H](NC(=O)c1ccc(N(C)C)cc1)C(=O)N1CC[C@@H]2[C@H]1C(=O)CN2C(=O)C1CCNCC1 [Example 242, (3aR,6aS)-4-Dimethylamino-N-{(1S)-3-methyl-1-[6-oxo-4-(piperidine-4-carbonyl)-hexahydro-pyrrolo[3,2-b]pyrrole-1-carbonyl]-butyl}-benzamide]
O=C(N[C@@H](CSCc1ccccc1)C(=O)N1CC[C@@H]2[C@H]1C(=O)CN2C(=O)c1ccccc1)c1cccc(Oc2ccccc2)c1 [Example 260, (3aR,6aS)-N-[(1R)-2-(4-Benzoyl-6-oxo-hexahydro-pyrrolo[3,2-b]pyrrol-1-yl)-1-benzylsulfanylmethyl-2-oxo-ethyl]-3-phenoxy-benzamide]
